Tests used:
YAP:TEAD4 complex = YAP:TEAD4 complex (Homo sapiens, UniProt Q15561); assay: Anti-FLAG co-immunoprecipitation of HA-YAP in HEK293T cells; assay type: cell-based; conditions: 10 μM, 24 hours
YAP:TEAD1 complex = YAP:TEAD1 complex (Homo sapiens, UniProt P28347); assay: as above; assay type: cell-based; conditions: 10 μM, 24 hours
YAP:TEAD2 complex = YAP:TEAD2 complex (Homo sapiens, UniProt Q15562); assay: as above; assay type: cell-based; conditions: 10 μM, 24 hours
[1] = biological target: YAP–TEAD4-YBD interaction (Homo sapiens, UniProt Q15561); assay: Primary FP screening assay, 1536-well; assay type: binding; conditions: read-out: IC50 in the primary FP screening assay
[2] = test system: Gal4-TEAD4 fusion protein with YAP; assay: Gal4-TEAD4 / YAP UAS-LUC reporter assay in HEK293T cells; assay type: cell-based; conditions: 20 μM, 24 hours

YAP–TEAD4-YBD interaction, sequence (Q15561 216-434): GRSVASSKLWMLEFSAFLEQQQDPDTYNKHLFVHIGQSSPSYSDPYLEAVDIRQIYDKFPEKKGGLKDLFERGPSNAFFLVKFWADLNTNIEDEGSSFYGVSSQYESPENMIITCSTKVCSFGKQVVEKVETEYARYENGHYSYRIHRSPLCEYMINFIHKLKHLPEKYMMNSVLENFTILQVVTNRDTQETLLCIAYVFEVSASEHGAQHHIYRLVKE
YAP:TEAD2 complex, sequence (Q15562 whole entry, one chain of several): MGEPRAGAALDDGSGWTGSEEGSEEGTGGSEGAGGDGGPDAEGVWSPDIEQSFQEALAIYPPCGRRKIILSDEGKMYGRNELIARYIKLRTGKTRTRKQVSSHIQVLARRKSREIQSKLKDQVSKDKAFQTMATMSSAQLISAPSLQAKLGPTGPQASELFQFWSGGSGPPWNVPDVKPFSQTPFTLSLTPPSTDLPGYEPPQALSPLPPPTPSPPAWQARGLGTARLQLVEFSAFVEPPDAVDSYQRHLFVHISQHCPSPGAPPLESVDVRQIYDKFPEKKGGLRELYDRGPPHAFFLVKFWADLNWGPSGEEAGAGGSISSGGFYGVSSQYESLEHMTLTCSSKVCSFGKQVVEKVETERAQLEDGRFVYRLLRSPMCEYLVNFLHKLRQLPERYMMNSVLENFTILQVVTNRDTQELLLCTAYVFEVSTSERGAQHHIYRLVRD
YAP:TEAD1 complex, sequence (P28347 whole entry, one chain of several): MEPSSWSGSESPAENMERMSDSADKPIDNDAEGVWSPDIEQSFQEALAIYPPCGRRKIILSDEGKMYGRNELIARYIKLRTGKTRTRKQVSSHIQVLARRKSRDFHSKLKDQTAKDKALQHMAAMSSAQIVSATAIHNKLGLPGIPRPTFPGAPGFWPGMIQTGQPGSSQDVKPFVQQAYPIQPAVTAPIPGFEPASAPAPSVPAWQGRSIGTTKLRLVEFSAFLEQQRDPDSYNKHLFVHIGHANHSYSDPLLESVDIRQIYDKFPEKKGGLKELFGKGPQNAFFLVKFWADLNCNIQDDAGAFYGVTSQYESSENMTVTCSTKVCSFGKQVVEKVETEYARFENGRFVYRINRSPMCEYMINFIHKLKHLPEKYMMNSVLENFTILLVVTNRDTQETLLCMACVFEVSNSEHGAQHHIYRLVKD
YAP:TEAD4 complex, sequence (Q15561 whole entry, one chain of several): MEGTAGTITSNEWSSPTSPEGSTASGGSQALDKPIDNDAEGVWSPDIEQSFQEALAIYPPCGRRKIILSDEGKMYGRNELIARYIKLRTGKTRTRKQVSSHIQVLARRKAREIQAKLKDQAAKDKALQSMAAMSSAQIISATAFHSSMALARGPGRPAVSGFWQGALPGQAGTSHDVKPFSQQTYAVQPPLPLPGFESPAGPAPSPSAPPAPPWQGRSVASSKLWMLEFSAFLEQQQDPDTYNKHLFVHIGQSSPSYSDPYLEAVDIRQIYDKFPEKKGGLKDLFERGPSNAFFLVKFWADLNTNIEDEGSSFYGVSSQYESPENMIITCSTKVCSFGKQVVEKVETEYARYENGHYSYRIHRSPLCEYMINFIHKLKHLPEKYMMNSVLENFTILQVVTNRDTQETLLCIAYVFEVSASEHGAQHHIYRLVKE

Molecule | inhibition of HA-YAP association with FLAG-TEAD4 (YAP:TEAD4 complex) | inhibition of HA-YAP association with FLAG-TEAD1 (YAP:TEAD1 complex) | inhibition of HA-YAP association with FLAG-TEAD2 (YAP:TEAD2 complex) | IC50 [1] | decrease in YAP-driven luciferase signal [2]
C=CC(=O)N1C[C@@H](n2cc(-c3cccnc3)nn2)[C@H](OCc2ccc(C(F)(F)F)cc2)C1 [MYF-03-69] | strongly inhibited | robustly inhibited the association with TEAD1 transgene | lesser inhibitory effect | – | –
Verteporfin [VTP] | – | – | – | 0.544 µM | 88%

— publication PMC10619132 (RSC Chemical Biology, 2023)
